Measurements as given in patent US20120245107A1, “METHODS OF REDUCING THE PROLIFERATION AND VIABLILITY OF MICROBIAL AGENTS” (Targeted Delivery Technologies Limited, priority 2009, published 2012).
Structures can show the parent of a compound that is named as a salt. Where two headings read alike, the source gives them in different places.

Experiments:
Assay type in all cases: cell-based
[1] = test system: Trichophyton rubrum MYA4498; assay: Morphological effects of antifungal preparations on dermatophyte hyphae in vitro (calcofluor white microscopy); conditions: T. rubrum hyphae; for Week 1 Change in morphology If yes, description of change: hydrochloride
Description: The morphological changes to dermatophyte hyphae following exposure to an antifungal formulation of the invention, specifically a terbinafine formulation, compared to terbinafine hydrochloride solution in vitro were evaluated.
Trichophyton rubrum MYA4498, one of the quality control isolates approved by the Clinical and Laboratory Standards Institute (CLSI) for dermatophyte susceptibility testing, was used as a test isolate throughout testing, (See, Ghannoum et al., 2004, J Clin Microbiol. 42(7): 2977-2979; Ghannoum et al., J Clin Microbiol. 44: 353-4350. Inoculum containing 3×10^3 conidia/ml of T. rubrum was prepared in RPMI-1640 buffered with MOPS (Hardy Diagnostics, Santa Maria. CA), added to the wells of microtiter plates (100 ul aliquots) and incubated at 35° C. for 2-3 days until good hyphal growth was achieved. Specific concentrations of 1 mg/ml, 3 mg/ml, and 15 mg/ml of terbinafine alone were prepared in RPMI-1640. The terbinafine hydrochloride (1 mg/ml. 3 mg/ml, and 15 mg/ml) and 15 mg/ml of a terbinafine formulation of the invention was added to the wells of the microtiter plates (100 ul aliquots) and re-incubated. Twenty plates for each drug were set up to ensure adequate sample for examination over several weeks; RPMI was added as needed to maintain the volume of each well at 200 ul.
At pre-determined intervals (24, 48, 72, and 96 hours and once weekly thereafter for a total of 12 weeks), a loopful of hyphal growth from the bottom of each well was removed to a glass microscope slide containing a drop of calcofluor white stain (fluorescent KOH) and covered with a cover slip. Slides were examined microscopically under both white light and UV light. Images from a representative field visualized under each light source were be recorded.
Samples showing significant differences in morphology between exposure of a terbinafine formulation vs. terbinafine alone were further examined under Scanning Electron Microscopy (SEM). Preparation of samples for SEM were performed following previously established methodology (see. Chandra et al., 2001. J. Dent. Res. 80:903-908).

Aspergillus flavus = assay: Minimum inhibitory concentration (MIC100), CLSI M38-A2 broth dilution
Description: (§1) Antifungal activity of the antifungal formulations of the invention against dermatophytes, as compared to terbinafine hydrochloride alone, is determined in various dermatophytes known to cause onychomycosis, including Trichophyton rubrum, T. mentagrophytes, and Epidermophyton floccosum. Antifungal activity of the antifungal formulations of the invention as compared to terbinafine hydrochloride alone, was determined in various pathogenic fungi, including Aspergillus flavus and Aspergillus fumigatus. Antifungal activity of the antifungal formulations of the invention was measured by the minimum inhibitory concentration (MIC). Antifungal activity can also be measured by minimum fungicidal concentration (MFC).
(§2) Several strains of Aspergillus flavus, Aspergillus fumigatus, and Candida albicans were tested. Trichophyton rubrum MYA4498 and T. mentagrophytes MYA4439, the QC isolates approved by the Clinical and Laboratory Standards Institute (CLSI) for dermatophyte susceptibility testing, can also be tested.
(§3) MIC testing was performed according to the CLSI M38A2 standard for the susceptibility testing of dermatophytes developed at the Center for Medical Mycology (See, Ghannoum et al., 2004, J Clin Microbial. 42(7): 2977-2979 CLSI, Reference Method for Broth Dilution Antifungal Susceptibility Testing of Filamentous Fungi: Approved Standard-Second Edition. CLSI document M38-A2 [ISBN 1-56238-668-9]. CLSI, 940 West Valley Road, Suite 1400, Wayne, Pa. 19087-1898 USA, 2008). Briefly, RPMI was the test medium, incubation temperature and time was 35° C. and 24 hours or 48 hours, respectively, and the inoculum size was 1-3×10^3 conidia/ml. The MIC endpoint was 100% inhibition as compared to the growth control.
(§4) The MIC range, MIC100 (defined as the minimum concentration required to inhibit 100% of the isolates tested), for the antifungal preparations of the invention and comparators was computed. The MFC range, MFC50, MFC90, and MFC100 for the antifungal preparations of the invention and comparators can also be computed.
(§5) In this example, the terbinafine formulation of the invention comprises terbinafine formulated with a phospholipid and a surfactant.

Aspergillus fumigatus = assay: as above
Description: as §1, §2, §3, §4, §5

[2] = test system: Trichophyton rubrum MYA4498; assay: Morphological effects of antifungal preparations on dermatophyte hyphae in vitro (calcofluor white microscopy); conditions: T. rubrum hyphae; for Week 1 Change in morphology If yes, description of change: hydrochloride; remark: listed apart in the source

CN(C/C=C/C#CC(C)(C)C)Cc1cccc2ccccc12 [Terbinafine hydrochloride, terbinafine hydrochloride]
morphological changes observed ([1]; 3 mg/mL, 24, 48, 72 and 96 hours): no morphological changes | Week 1 Change in morphology If yes, description of change ([1]; 3 mg/mL): no presence of vacuoles within the hyphae | Week 1 Change in morphology If yes, description of change ([1]; 3 mg/mL, listed as Tcrbinafine): no | Week 2 Change in morphology If yes, description of change ([1]; 3 mg/mL): Yes: hyphae under | 24 hour Change in morphology If yes, description of change ([1]; 15 mg/mL, 24 hour): no | 48 hour Change in morphology If yes, description of change ([1]; 15 mg/mL, 48 hour): no | 72 hour Change in morphology If yes, description of change ([1]; 15 mg/mL, 72 hour): no | 96 hour Change in morphology If yes, description of change ([1]; 15 mg/mL, 96 hour): no | Week 1 Change in morphology If yes, description of change ([1]; 15 mg/mL, listed as Terbinafine): no | Week 1 Change in morphology If yes, description of change ([1]; 15 mg/mL, listed as terbinafine): no presence of vacuoles within the hyphae | Week 2 Change in morphology If yes, description of change ([1]; 15 mg/mL): no | MIC (Aspergillus flavus; 24 h, A. flavus strain MRL No. 17840, 24 hours, read-out: MIC100 (μg/mL) in 24 hours): 0.002 µg/mL | MIC (Aspergillus flavus; 24 h, A. flavus strain MRL No. 17842, 24 hours, read-out: MIC100 (μg/mL) in 24 hours): 0.002 µg/mL | MIC (Aspergillus flavus; 24 h, A. flavus strain MRL No. 18736, 24 hours, read-out: MIC100 (μg/mL) in 24 hours): 6e-05 µg/mL | MIC (Aspergillus flavus; 24 h, A. flavus strain MRL No. 18743, 24 hours, read-out: MIC100 (μg/mL) in 24 hours): 0.008 µg/mL | MIC (Aspergillus flavus; 24 h, A. flavus strain MRL No. 18744, 24 hours, read-out: MIC100 (μg/mL) in 24 hours): 0.008 µg/mL | MIC (Aspergillus flavus; 48 h, A. flavus strain MRL No. 17840, 48 hours, read-out: MIC100 (μg/mL) in 48 hours): 0.004 µg/mL | MIC (Aspergillus flavus; 48 h, A. flavus strain MRL No. 17842, 48 hours, read-out: MIC100 (μg/mL) in 48 hours): 0.002 µg/mL | MIC (Aspergillus flavus; 48 h, A. flavus strain MRL No. 18736, 48 hours, read-out: MIC100 (μg/mL) in 48 hours): 0.002 µg/mL | MIC (Aspergillus flavus; 48 h, A. flavus strain MRL No. 18743, 48 hours, read-out: MIC100 (μg/mL) in 48 hours): 0.015 µg/mL | MIC (Aspergillus flavus; 48 h, A. flavus strain MRL No. 18744, 48 hours, read-out: MIC100 (μg/mL) in 48 hours): 0.002 µg/mL | MIC (Aspergillus fumigatus; 24 h, A. fumigatus strain MRL No. 2456, 24 hours, read-out: MIC100 (μg/mL) in 24 hours): 0.25 µg/mL | MIC (Aspergillus fumigatus; 24 h, A. fumigatus strain MRL No. 2471, 24 hours, read-out: MIC100 (μg/mL) in 24 hours): 0.25 µg/mL | MIC (Aspergillus fumigatus; 24 h, A. fumigatus strain MRL No. 2574, 24 hours, read-out: MIC100 (μg/mL) in 24 hours): 0.5 µg/mL | MIC (Aspergillus fumigatus; 24 h, A. fumigatus strain MRL No. 16621, 24 hours, read-out: MIC100 (μg/mL) in 24 hours): 0.5 µg/mL | MIC (Aspergillus fumigatus; 24 h, A. fumigatus strain MRL No. 16629, 24 hours, read-out: MIC100 (μg/mL) in 24 hours): 0.5 µg/mL | MIC (Aspergillus fumigatus; 48 h, A. fumigatus strain MRL No. 2456, 48 hours, read-out: MIC100 (μg/mL) in 48 hours): 234 µg/mL | MIC (Aspergillus fumigatus; 48 h, A. fumigatus strain MRL No. 2471, 48 hours, read-out: MIC100 (μg/mL) in 48 hours): 234 µg/mL | MIC (Aspergillus fumigatus; 48 h, A. fumigatus strain MRL No. 2574, 48 hours, read-out: MIC100 (μg/mL) in 48 hours): 234 µg/mL | MIC (Aspergillus fumigatus; 48 h, A. fumigatus strain MRL No. 16627, 48 hours, read-out: MIC100 (μg/mL) in 48 hours): 234 µg/mL | MIC (Aspergillus fumigatus; 48 h, A. fumigatus strain MRL No. 16629, 48 hours, read-out: MIC100 (μg/mL) in 48 hours): 234 µg/mL | morphological changes observed ([2]; 1 μg/mL, 24, 48, 72 and 96 hours): no morphological changes | 24 hour Change in morphology If yes, description of change ([2]; 1 μg/mL): no | 48 hour Change in morphology If yes, description of change ([2]; 1 μg/mL): no | 72 hour Change in morphology If yes, description of change ([2]; 1 μg/mL): no | 96 hour Change in morphology If yes, description of change ([2]; 1 μg/mL): no | Week 1 Change in morphology If yes, description of change ([2]; 1 μg/mL, listed as Terbinafine): Yes: hyphae under | Week 1 Change in morphology If yes, description of change ([2]; 1 μg/mL, listed as terbinafine): had vacuoles within the hyphae | Week 2 Change in morphology If yes, description of change ([2]; 1 μg/mL, Week 2): Yes: hyphae under | 24 hour Change in morphology If yes, description of change ([2]; 3 mg/mL): no | 48 hour Change in morphology If yes, description of change ([2]; 3 mg/mL): no | 72 hour Change in morphology If yes, description of change ([2]; 3 mg/mL): no | 96 hour Change in morphology If yes, description of change ([2]; 3 mg/mL): no
